Experimental data as given in PubChem BioAssay AID330 (DTP/NCI, 2004).
Several values for one entry are separate records, joined by “and”; a condition that tells them apart may be missing. Equal values may be shown once. Inconclusive results and toxic doses are left out. How the source made its calls: active means survival T/C of 150% or more; inactive means T/C below 125% in these data.

System: P388 leukemia ip, CD2F1 mice, survival T/C
Experiment: NCI In Vivo Anticancer Drug Screen. Data for tumor model P388 Leukemia (intraperitoneal) in CD2F1 (CDF1) mice
Conditions: endpoint: median survival time, higher = longer survival
Outline: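 Mice carrying the transplanted tumor received test compound or vehicle. Survival was recorded in each group, and the value is the treated-group measurement divided by that of the vehicle-treated control group.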

[1] = dose: 100.0 mg/kg/injection, schedule: Q01DX009 (ip), vehicle: Klucel (hydroxypropylcellulose) (HPC)
[2] = dose: 200.0 mg/kg/injection, schedule: Q01DX009 (ip), vehicle: Klucel (hydroxypropylcellulose) (HPC)
[3] = dose: 50.0 mg/kg/injection, schedule: Q01DX009 (ip), vehicle: Klucel (hydroxypropylcellulose) (HPC)
[4] = dose: 100.0 mg/kg/injection, schedule: Q04DX002 (ip), vehicle: saline
[5] = dose: 200.0 mg/kg/injection, schedule: Q04DX002 (ip), vehicle: saline
[6] = dose: 400.0 mg/kg/injection, schedule: Q04DX002 (ip), vehicle: saline
[7] = dose: 100.0 mg/kg/injection, schedule: Q01DX001 (ip), vehicle: Klucel (hydroxypropylcellulose) (HPC)
[8] = dose: 200.0 mg/kg/injection, schedule: Q01DX001 (ip), vehicle: Klucel (hydroxypropylcellulose) (HPC)
[9] = dose: 50.0 mg/kg/injection, schedule: Q01DX005 (ip), vehicle: saline with Tween-80
[10] = dose: 100.0 mg/kg/injection, schedule: Q01DX005 (ip), vehicle: saline with Tween-80
[11] = dose: 50.0 mg/kg/injection, schedule: Q01DX009 (ip), vehicle: saline with Tween-80
[12] = dose: 100.0 mg/kg/injection, schedule: Q01DX009 (ip), vehicle: saline with Tween-80
[13] = dose: 60.0 mg/kg/injection, schedule: Q01DX005 (ip), vehicle: saline with Tween-80
[14] = dose: 120.0 mg/kg/injection, schedule: Q01DX005 (ip), vehicle: saline with Tween-80
[15] = dose: 240.0 mg/kg/injection, schedule: Q01DX005 (ip), vehicle: saline with Tween-80
[16] = dose: 50.0 mg/kg/injection, schedule: Q01DX005 (ip), vehicle: Klucel (hydroxypropylcellulose) (HPC)
[17] = dose: 100.0 mg/kg/injection, schedule: Q01DX005 (ip), vehicle: Klucel (hydroxypropylcellulose) (HPC)
[18] = dose: 200.0 mg/kg/injection, schedule: Q01DX005 (ip), vehicle: Klucel (hydroxypropylcellulose) (HPC)
[19] = dose: 60.0 mg/kg/injection, schedule: Q01DX005 (ip), vehicle: Klucel (hydroxypropylcellulose) (HPC)
[20] = dose: 200.0 mg/kg/injection, schedule: Q01DX009 (ip), vehicle: saline with Tween-80

Measured: T/C

O=C(OC1COC(Br)C(OC(=O)c2ccccc2)C1OC(=O)c1ccccc1)c1ccccc1 (configuration not stated)
inactive: [1] 100 % of control | [2] 100 % of control | dose: 400.0 mg/kg/injection, schedule: Q01DX009 (ip), vehicle: Klucel (hydroxypropylcellulose) (HPC) 90 % of control

C1CC[N-]CC1.C1CC[N-]CC1.C1CC[N-]CC1.[Cr+6].[N-]=C=O.[N-]=C=O.[N-]=C=O
inactive: dose: 100.0 mg/kg/injection, schedule: Q04DX002 (ip), vehicle: distilled water + alcohol 99 % of control | dose: 200.0 mg/kg/injection, schedule: Q04DX002 (ip), vehicle: distilled water + alcohol 96 % of control | dose: 400.0 mg/kg/injection, schedule: Q04DX002 (ip), vehicle: distilled water + alcohol 89 % of control

COC(=O)C1c2ccccc2CC(=O)N1NC(C)=O (configuration not stated)
inactive: [3] 104 % of control | [1] 101 % of control

CC(C)=NN/C=N/S(C)(=O)=O
inactive: [4] 105 % of control | [5] 104 % of control | [6] 104 % of control

O=C1OC(c2ccccc2)(c2ccccc2)C2CC12c1ccccc1 (configuration not stated)
inactive: [7] 95 % of control | [8] 95 % of control | dose: 400.0 mg/kg/injection, schedule: Q01DX001 (ip), vehicle: Klucel (hydroxypropylcellulose) (HPC) 88 % of control

CCOC(=O)c1ccc(N(C)Cc2cnc(N)c(C#N)n2)cc1
inactive: dose: 15.0 mg/kg/injection, schedule: Q01DX009 (ip), vehicle: saline with Tween-80 114 % of control | dose: 30.0 mg/kg/injection, schedule: Q01DX009 (ip), vehicle: saline with Tween-80 115 % of control | dose: 60.0 mg/kg/injection, schedule: Q01DX009 (ip), vehicle: saline with Tween-80 89 % of control

O=C1C=CC(=O)N1C(=O)NCNC(=O)N1C(=O)C=CC1=O
inactive: dose: 25.0 mg/kg/injection, schedule: Q01DX005 (ip), vehicle: saline with Tween-80 99 % of control and 107 % of control | [9] 103 % of control (2×) and 106 % of control | [10] 103 % of control and 121 % of control

NCc1c(Cl)c(Cl)c(CN)c(Cl)c1Cl
inactive: [11] 91 % of control | dose: 50.0 mg/kg/injection, schedule: Q04DX003 (ip), vehicle: saline with Tween-80 91 % of control | [12] 91 % of control | dose: 100.0 mg/kg/injection, schedule: Q04DX003 (ip), vehicle: saline with Tween-80 91 % of control | dose: 200.0 mg/kg/injection, schedule: Q04DX003 (ip), vehicle: saline with Tween-80 87 % of control

CCC12C=CCN3CC[C@@]4(c5cc([C@@]6(C(=O)OC)C[C@@H]7CN(CCc8c6[nH]c6ccccc86)C[C@](O)(CC)C7)c(OC)cc5N(C)[C@H]4[C@@](O)(C(=O)NCCCCCCCCCCCC(=O)O)[C@@H]1O)C32 (some centres not stated)
active: dose: 11.25 mg/kg/injection, schedule: Q01DX001 (ip), vehicle: other 164 % of control | dose: 11.25 mg/kg/injection, schedule: Q01DX001 (ip), vehicle: saline with Tween-80 153 % of control | dose: 11.25 mg/kg/injection, schedule: Q01DX001 (ip), vehicle: saline 189 % of control | dose: 22.5 mg/kg/injection, schedule: Q01DX001 (ip), vehicle: saline with Tween-80 164 % of control | dose: 45.0 mg/kg/injection, schedule: Q01DX001 (ip), vehicle: saline with Tween-80 182 % of control

NC(CSC1c2ccccc2-c2ccccc21)C(=O)O (configuration not stated)
inactive: [13] 90 % of control | [14] 98 % of control | [15] 92 % of control

CC(C)OCCCN(Cn1c(=S)sc2ccccc21)Cn1c(=S)sc2ccccc21
inactive: [3] 91 % of control | [1] 89 % of control | [2] 87 % of control

COC1=C(C)C(=O)c2c(c(C=O)c(Cl)n2C)C1=O
inactive: [7] 99 % of control | [8] 103 % of control

O=c1cc(O)nc2nc(-c3ccccc3)c(-c3ccccc3)nn12
inactive: [16] 101 % of control | [17] 93 % of control | [18] 93 % of control

CN(C)C1CS(=O)(=O)OC2=C1CCc1c2ccn1C (configuration not stated)
inactive: [19] 96 % of control | dose: 120.0 mg/kg/injection, schedule: Q01DX005 (ip), vehicle: Klucel (hydroxypropylcellulose) (HPC) 98 % of control | dose: 240.0 mg/kg/injection, schedule: Q01DX005 (ip), vehicle: Klucel (hydroxypropylcellulose) (HPC) 96 % of control

N#Cc1cnc(N)[nH]c1=O
inactive: dose: 15.0 mg/kg/injection, schedule: Q01DX005 (ip), vehicle: Klucel (hydroxypropylcellulose) (HPC) 101 % of control | dose: 30.0 mg/kg/injection, schedule: Q01DX005 (ip), vehicle: Klucel (hydroxypropylcellulose) (HPC) 97 % of control | [19] 98 % of control and 99 % of control

C=CCC(O)(C(F)(F)F)C(F)(F)F
inactive: [11] 105 % of control | [12] 103 % of control | [20] 115 % of control

CC1=NN(C(=O)c2ccncc2)C(=O)C1N=Nc1ccc2ccccc2c1 (configuration not stated)
inactive: [11] 101 % of control | [12] 102 % of control

ClCC1OCCO1
inactive: dose: 50.0 mg/kg/injection, schedule: Q01DX009 (ip), vehicle: saline 116 % of control | dose: 100.0 mg/kg/injection, schedule: Q01DX009 (ip), vehicle: saline 116 % of control

BrC1/C=C\CC(Br)/C=C\C1 (configuration not stated)
inactive: [11] 110 % of control | [12] 117 % of control | [20] 115 % of control

CCCCCCC(=O)/C=C/c1ccccc1OC(=O)c1ccc(Cl)cc1
inactive: dose: 25.0 mg/kg/injection, schedule: Q01DX009 (ip), vehicle: saline with Tween-80 101 % of control | [11] 88 % of control and 90 % of control | [12] 95 % of control | [20] 94 % of control

Cc1nn(C(=S)S)c(C)c1N=Nc1ccc(Br)cc1
inactive: dose: 100.0 mg/kg/injection, schedule: Q04DX002 (ip), vehicle: Klucel (hydroxypropylcellulose) (HPC) 113 % of control | dose: 200.0 mg/kg/injection, schedule: Q04DX002 (ip), vehicle: Klucel (hydroxypropylcellulose) (HPC) 90 % of control | dose: 400.0 mg/kg/injection, schedule: Q04DX002 (ip), vehicle: Klucel (hydroxypropylcellulose) (HPC) 112 % of control

COC(=O)C1=NOC2C(=O)N(c3ccccc3)C(=O)C12 (configuration not stated)
inactive: [9] 96 % of control | [10] 101 % of control

COC(=O)C1CCCN1C(=O)c1ccccc1 (configuration not stated)
inactive: [9] 114 % of control | [10] 93 % of control | dose: 200.0 mg/kg/injection, schedule: Q01DX005 (ip), vehicle: saline with Tween-80 100 % of control

CCN(CC)S(=O)(=O)C(=[N+]=[N-])P(=O)(OC)OC
inactive: [4] 100 % of control | [5] 112 % of control | [6] 100 % of control

COc1ccc2c(c1OC(C)=O)-c1cc(OC(C)=O)cc3c1C(C2)N(C(=O)CN(CCCl)CCCl)CC3 (configuration not stated)
inactive: dose: 50.0 mg/kg/injection, schedule: Q04DX003 (ip), vehicle: DMSO 94 % of control | dose: 50.0 mg/kg/injection, schedule: Q04DX003 (ip), vehicle: other 95 % of control
active: dose: 6.25 mg/kg/injection, schedule: Q04DX003 (ip), vehicle: other 150 % of control | dose: 12.5 mg/kg/injection, schedule: Q04DX003 (ip), vehicle: other 170 % of control | dose: 25.0 mg/kg/injection, schedule: Q04DX003 (ip), vehicle: DMSO 170 % of control | dose: 25.0 mg/kg/injection, schedule: Q04DX003 (ip), vehicle: other 185 % of control

CP1(=O)CCC2=C1CCc1cc(O)ccc12 (configuration not stated)
inactive: dose: 6.25 mg/kg/injection, schedule: Q01DX009 (ip), vehicle: Klucel (hydroxypropylcellulose) (HPC) 100 % of control | dose: 12.5 mg/kg/injection, schedule: Q01DX009 (ip), vehicle: Klucel (hydroxypropylcellulose) (HPC) 100 % of control | dose: 25.0 mg/kg/injection, schedule: Q01DX009 (ip), vehicle: Klucel (hydroxypropylcellulose) (HPC) 103 % of control and 106 % of control

CC1=NS(=O)(=O)NC(C)=C1CC1=C(C)NS(=O)(=O)N=C1C
inactive: [13] 99 % of control | [14] 107 % of control | [15] 106 % of control

Cn1ccc2c3c4ccccc4ccc3c3c(ccn3C)c21
active: [16] 197 % of control | [17] 177 % of control | [18] 239 % of control
